Measured values taken from patent US20190314382A1, “COMPOUNDS AND PHARMACEUTICAL COMPOSITIONS THEREOF FOR THE TREATMENT OF INFLAMMATORY DISEASES” (Galapagos NV, priority 2016, published 2019).

Experiments:
[1] = cited from earlier work
[2] = test system: GM-CSF; test: Biomarker study in RA subjects: serum GM-CSF, Luminex 18-Plex; format: in vivo, human; settings: observed case
Procedure: (§1) Double-blind, placebo-controlled add on study in subjects with moderately to severely active RA who have an inadequate response to MTX (oral or parenteral).
(§2) 595 subjects randomized to one of 6 dose regimens of Compound 1 (dosed as a [Compound 1:HCl:3H2O]) (3 dose levels administered either once or twice daily) or placebo on top of each subject's stable dose of MTX.
(§3) Compound 1 (dosed as a [Compound 1:HCl:3H2O]) is dosed for twelve weeks once daily (q.d.) (50 mg, 100 mg or 200 mg) or twice daily (b.i.d.) (25 mg, 50 mg or 100 mg); or placebo.
(§4) 18 parameters from human serum samples (GM-CSF, IFNγ, IL-1β, IL-2, IL-4, IL-5, IL-6, IL-7, IL-8, IL-10, IL-12 (p70), IL-13, IL-17A, IL-21, IL-23, MIP-1α, MIP-1β and TNF-α) are analyzed on a Luminex Plateform (BioPlex® L200) using a Luminex 18-Plex Kit (Millipore: HSTCMAG-28SK).
(§5) Coupled beads react with the sample containing the biomarker of interest. […] Phycoerythrin (PE) serves as a fluorescent indicator.
(§6) The concentration of bead bound analyte is proportional to the MFI (Median Fluorescent Intensity) and back-calculated from interpolation with the calibration curve fitted with a 4 or 5 parameters logistic (4PL or 5PL) regression model selected during method pre-validation.
(§7) Treatment effect was assessed using an ANCOVA model on the changes from baseline, with factors: treatment, baseline value of the PD marker, geographical region and previous use of biologics.

[3] = test system: IL-1β; test: Biomarker study in RA subjects: serum IL-1β, Luminex 18-Plex; format: in vivo, human; settings: observed case
Procedure: as §1, §2, §3, §4, §5, §6, §7

[4] = test system: IL-8; test: Biomarker study in RA subjects: serum IL-8, Luminex 18-Plex; format: in vivo, human; settings: observed case
Procedure: as §1, §2, §3, §4, §5, §6, §7

[5] = test system: IL-10; test: Biomarker study in RA subjects: serum IL-10, Luminex 18-Plex; format: in vivo, human; settings: observed case
Procedure: as §1, §2, §3, §4, §5, §6, §7

[6] = 50 mg bid, Week 4, N = 73, RA subjects on MTX
[7] = 50 mg bid, Week 12, N = 73, RA subjects on MTX
[8] = 100 mg bid, Week 4, N = 79, RA subjects on MTX
[9] = 100 mg bid, Week 12, N = 79, RA subjects on MTX
[10] = 100 mg qd, Week 4, N = 68, RA subjects on MTX
[11] = 100 mg qd, Week 12, N = 68, RA subjects on MTX
[12] = 200 mg qd, Week 4, N = 75, RA subjects on MTX
[13] = 200 mg qd, Week 12, N = 75, RA subjects on MTX

## O=C(Nc1nc2cccc(-c3ccc(CN4CCS(=O)(=O)CC4)cc3)n2n1)C1CC1 [Compound 1, cyclopropanecarboxylic acid {5-[4-(1,1-dioxo-thiomorpholin-4-ylmethyl)-phenyl]-[1,2,4]triazolo[1,5-a]pyridin-2yl}-amide]
[1]; in particular regarding anemia, lymphocytes, neutrophils, hemoglobin
  safety profile: remarkable safety profile
[1]; rheumatoid arthritis, inflammatory bowel diseases, in particular Crohn's disease
  efficacy in phase II: remarkable efficacy
[2]; [6]
  GM-CSF Mean change from baseline at Week 4: -5.4 pg/mL
[2]; [7]
  GM-CSF Mean change from baseline at Week 12: -14.4 pg/mL
[2]; [8]
  GM-CSF Mean change from baseline at Week 4: -12.4 pg/mL
[2]; [9]
  GM-CSF Mean change from baseline at Week 12: -21.1 pg/mL
[2]; [10]
  GM-CSF Mean change from baseline at Week 4: -9.3 pg/mL
[2]; [11]
  GM-CSF Mean change from baseline at Week 12: -19.5 pg/mL
[2]; [12]
  GM-CSF Mean change from baseline at Week 4: -8.4 pg/mL
[2]; [13]
  GM-CSF Mean change from baseline at Week 12: -15.0 pg/mL
[3]; [6]
  IL-1βb Mean change from baseline at Week 4: 1.4 pg/mL
[3]; [7]
  IL-1βb Mean change from baseline at Week 12: -0.9 pg/mL
[3]; [8]
  IL-1βb Mean change from baseline at Week 4: -1.0 pg/mL
[3]; [9]
  IL-1βb Mean change from baseline at Week 12: -1.8 pg/mL
[3]; [10]
  IL-1βb Mean change from baseline at Week 4: -0.6 pg/mL
[3]; [11]
  IL-1βb Mean change from baseline at Week 12: -1.2 pg/mL
[3]; [12]
  IL-1βb Mean change from baseline at Week 4: -0.6 pg/mL
[3]; [13]
  IL-1βb Mean change from baseline at Week 12: -1.6 pg/mL
[4]; [6]
  IL-8 Mean change from baseline at Week 4: 2.3 pg/mL
[4]; [7]
  IL-8 Mean change from baseline at Week 12: 6.9 pg/mL
[4]; [8]
  IL-8 Mean change from baseline at Week 4: -1.8 pg/mL
[4]; [9]
  IL-8 Mean change from baseline at Week 12: 2.4 pg/mL
[4]; [10]
  IL-8 Mean change from baseline at Week 4: 4.1 pg/mL
[4]; [11]
  IL-8 Mean change from baseline at Week 12: 0.7 pg/mL
[4]; [12]
  IL-8 Mean change from baseline at Week 4: -2.0 pg/mL
[4]; [13]
  IL-8 Mean change from baseline at Week 12: -1.6 pg/mL
[5]; [6]
  IL-10 Mean change from baseline at Week 4: -2.1 pg/mL
[5]; [7]
  IL-10 Mean change from baseline at Week 12: -3.7 pg/mL
[5]; [8]
  IL-10 Mean change from baseline at Week 4: -3.3 pg/mL
[5]; [9]
  IL-10 Mean change from baseline at Week 12: -4.2 pg/mL
[5]; [10]
  IL-10 Mean change from baseline at Week 4: 0.1 pg/mL
[5]; [11]
  IL-10 Mean change from baseline at Week 12: -0.1 pg/mL
[5]; [12]
  IL-10 Mean change from baseline at Week 4: -0.5 pg/mL
[5]; [13]
  IL-10 Mean change from baseline at Week 12: -1.5 pg/mL
